Measurements: patent US6054484A, “Transparent aqueous solution of diclofenac sodium and medicinal compositions with the use of the same” (Tsumura & Co., priority 1996, dated 2000)

How the values were obtained:
[1] = cited from earlier work
[2] = Solubility of drug substance in water, oil ingredients and fatty acid diethanolamide; assay type: physicochemical

Row | Structure (SMILES) | solubility in water (in words) [1] | solubility in water [1] | dissolution in coconut fatty acid diethanolamide ([2]; coconut fatty acid diethanolamide alone) | solubility in oil ingredients ([2]; in oil ingredients) | dissolution in liquid mixture of coconut fatty acid diethanolamide with water ([2]; liquid mixture with water)
1 | COc1ccc2c(c1)c(CC(=O)O)c(C)n2C(=O)c1ccc(Cl)cc1 [indomethacin] | insoluble in water | – | – | – | –
2 | O=C(O)Cc1ccccc1Nc1c(Cl)cccc1Cl [diclofenac sodium] | – | about 1.5 wt. % | does not dissolve | low solubility | at a high concentration and stably
